The values below come from patent US6756480B2, “Modulators of receptors for parathyroid hormone and parathyroid hormone-related protein” (Amgen Inc., priority 2000, dated 2004).

Like-named read-outs stand apart in the source and are kept apart here. No end group written: not given here.

For data set [1], the system named is mice. The data set can be described thus: Mouse bioassay: SC injection days 0, 5, 10; clinical chemistry (calcium, AP, TRAP) and tibial pQCT. The format is in vivo. Particulars: for serum TRAP (osteoclast marker) / calcemic potency among the 3 Fc peptides: mice; for serum TRAP (osteoclast marker): after single SC injection; for calcemic potency among the 3 Fc peptides: serum calcium. Here is the method:
Peripheral blood was obtained daily for 3 days following single subcutaneous injections of the indicated compounds.
Peripheral quantitative computed tomography (pQCT) was performed on the proximal tibial metaphysis of mice on day 15, after injections of PTH constructs on day 0, 5 and 10.
We then tested the effects of PTH-(1-34), PTH-(1-34)-Fc, PTH-(1-31)-Fc and PTH-(1-30)-Fc in mice. Four week old male mice were injected on days 0, 5, and 10 with vehicle or with PTH fragments, by SC injection. Peripheral blood was obtained for clinical chemistry at 24, 48, and 72 h. Mice were killed on day 15, vertebrae, tibiae and femurs were harvested for histology and one tibia was collected for bone density measurements (peripheral quantitative computed tomography, pQCT). Clinical chemistry endpoints included total serum calcium, serum alkaline phosphatase (AP, a marker of osteoblast activity), and serum tartrate-resistant acid phosphatase (TRAP, a marker of osteoclast activity). For each animal, the ratio of AP:TRAP was calculated as an index of relative osteoblast activity compared to osteoclast activity. A higher AP:TRAP ratio would indicate a potentially more anabolic agent.

A further data set deals with T1, PTH-1 receptor (Homo sapiens, UniProt Q03431).
T1 sequence (Q03431 27-593): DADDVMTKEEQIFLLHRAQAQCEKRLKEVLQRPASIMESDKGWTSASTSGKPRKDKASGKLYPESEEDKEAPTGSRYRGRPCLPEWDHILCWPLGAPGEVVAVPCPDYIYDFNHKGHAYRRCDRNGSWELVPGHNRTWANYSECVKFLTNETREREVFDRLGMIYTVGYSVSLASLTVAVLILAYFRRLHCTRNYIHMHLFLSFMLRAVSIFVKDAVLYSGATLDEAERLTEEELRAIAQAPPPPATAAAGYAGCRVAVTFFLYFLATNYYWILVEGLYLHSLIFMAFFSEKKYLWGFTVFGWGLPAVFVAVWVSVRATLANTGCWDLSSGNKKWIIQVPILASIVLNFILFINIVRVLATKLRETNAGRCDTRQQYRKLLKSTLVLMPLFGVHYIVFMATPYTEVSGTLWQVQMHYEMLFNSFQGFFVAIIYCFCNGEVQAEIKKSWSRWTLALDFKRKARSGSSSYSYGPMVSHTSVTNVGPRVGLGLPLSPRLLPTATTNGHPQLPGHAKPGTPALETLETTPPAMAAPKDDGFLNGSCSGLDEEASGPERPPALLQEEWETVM
As to conditions: cited from earlier work.

The next data set concerns healthy humans. Particulars: infusion, unlike PTH-(1-34); cited from earlier work.
For a further data set, the target named is T2, rat PTH-1 receptor (Rattus norvegicus, UniProt P25961).
T2 sequence (P25961 27-591): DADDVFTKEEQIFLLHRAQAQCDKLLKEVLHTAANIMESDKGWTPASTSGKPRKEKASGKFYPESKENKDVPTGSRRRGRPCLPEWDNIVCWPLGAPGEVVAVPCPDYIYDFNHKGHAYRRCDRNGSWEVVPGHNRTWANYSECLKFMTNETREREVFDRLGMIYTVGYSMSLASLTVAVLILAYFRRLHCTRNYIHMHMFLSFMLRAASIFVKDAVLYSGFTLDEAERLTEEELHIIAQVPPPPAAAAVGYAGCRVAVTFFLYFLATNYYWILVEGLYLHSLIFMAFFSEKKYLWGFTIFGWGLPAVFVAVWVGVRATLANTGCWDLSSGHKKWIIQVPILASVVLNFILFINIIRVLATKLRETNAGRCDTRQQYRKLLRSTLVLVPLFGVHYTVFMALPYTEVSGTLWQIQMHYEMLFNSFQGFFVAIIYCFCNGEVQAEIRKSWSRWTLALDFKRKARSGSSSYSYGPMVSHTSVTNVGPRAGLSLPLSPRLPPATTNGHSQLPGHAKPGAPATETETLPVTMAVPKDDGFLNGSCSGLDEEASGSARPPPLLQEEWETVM
As to conditions: cited from earlier work.

The conditions of data set [2]: in vivo, circulating; cited from earlier work.
For data set [3], the system named is mice. The data set can be described thus: Acute hypercalcemia induced by PTHrP-(1-34) challenge, antagonist given SC, blood ionized calcium. Particulars: 0.5 mg/kg SC, vehicle-treated mice. The format is in vivo. Here is the method:
Normal male mice were injected SC with vehicle (PBS, circles) or with human PTHrP-(1-34) at 0.5 mg/kg (squares). PTHrP-challenged mice were then immediately injected SC with [Asn10,Leu11]PTHrP-(7-34)-Fc at 10 mg/kg (triangles) or 30 mg/kg (diamonds). Data represent group means, with an n of 6 mice/group.
We have cloned, expressed and purified [Asn10,Leu11]PTHrP-(7-34)-Fc. We tested the ability of this compound to antagonize both acute and chronic hypercalcemia responses in mice. PTHrP-(1-34) was used as a calcemic agent to evaluate the acute effects of [Asn10,Leu11]PTHrP-(7-34)-Fc. Because PTHrP is the principal mediator of HHM, this study also represents a model for hypercalcemia-inducing tumors. Briefly, blood ionized calcium (BIC) was measured at baseline, and mice were then challenged with vehicle (PBS) or with PTHrP-(1-34) (0.5 mg/kg) by SC injection. Mice were then treated once SC with varying doses of [Asn10,Leu11]PTHrP-(7-34)-Fc, or with vehicle (PBS). In vehicle-treated mice challenged with PTHrP-(1-34), a transient hypercalcemic response was observed. The peak calcemic response occurred at 3 h post challenge, and persisted until at least 6 h post challenge.

A further data set has as its system OVX rats. Particulars: cited from earlier work.
Data set [4] relates to aged ovariectomized (OVX) rats. The data set can be described thus: Monotherapy in aged ovariectomized (OVX) rats: twice-weekly treatment, BMD by DEXA and serum calcium. The class given is in vivo. Here is the method:
Eleven months after OVX, rats were treated twice per week with phosphate-buffered saline (PBS, vehicle) or with APD (0.5 mg/kg) or with PTH-(1-34)-Fc (50 nmol/kg). DEXA was performed weekly. Blood was drawn 24 hours after the second weekly injection, when the calcemic effects of PTH-Fc are typically maximal. The effects of PTH-Fc administration on lumbar BMD (FIG. 11A), tibia/femur BMD (FIG. 11B), femoral metaphysis BMD (FIG. 11C), and serum calcium (FIG. 11D) were determined.
Sprague Dawley rats were OVX'd at 3 months of age and allowed to lose bone for 11 months. Other rats were sham-operated and treated twice per week with vehicle (PBS). OVX rats were treated twice per week with SC injections of either vehicle or the bisphosphonate APD (pamidronate, 0.5 mg/kg), or with PTH-(1-34)-Fc (50 nmol/kg) or with APD+PTH-(1-34)-Fc. BMD was determined weekly via dual energy X-ray absorptiometry (DEXA). Rats were sacrificed after 4 weeks of treatment. At the start of treatment, OVX rats had significant reductions in BMD at all skeletal sites analyzed, compared to vehicle-treated […] (FIG. 11, p<0.05, 2-way ANOVA).

Where [5] appears, read: 100 nmoles/kg on day 0, 5, 10, pQCT day 15.

In the case of “PTH-(1-31)-Fc: PTH (1-31), SVSEIQLMHNLGKHLNSMERVEWLRKKLQDV, linked at its C-terminus to an Fc domain”, the “bone mineral density (proximal tibial metaphysis)” value (“bone mineral density” for short) in the data set with mice [1] (setting [5]) was “no effect”. For the same compound, the “serum AP (osteoblast marker)” value in the data set on mice [1] (300 nmoles/kg (given for PTH-(1-34)-Fc), 72 h) is recorded as “significantly elevated”. For the same compound, in the data set on mice [1] (high dose 1,000 nmoles/kg), the “calculated AP:TRAP ratio” value is listed as “decreased”. Further, the toxicity entry in the data set with mice [1] (higher doses 300-1,000 nmoles/kg) is “significant hypercalcemia-related toxicity”. Moreover, the “calculated AP:TRAP ratio” value with mice [1] (low dose 100 nmoles/kg) is on record as “increased”. Also, in the data set with mice [1], the “serum TRAP (osteoclast marker)” value is “dramatically increased” and the “calcemic potency among the 3 Fc peptides” value is “more potent calcemic agent”.
With human PTH(1-31) [hPTH-(1-31)], the “reduction of affinity for PTH-1 receptor compared to hPTH-(1-34)” value in the data set with PTH-1 receptor is 1-6 fold. In addition, the “serum calcium, plasma 1,25(OH)2D3, urinary N-TX levels” value in the data set with healthy humans is listed as “failed to elevate”.
Regarding “human PTH(1-30) (SVSEIQLMHNLGKHLNSMERVEWLRKKLQD; listed as Homo sapiens) [hPTH-(1-30)]”, the “reduction of affinity for PTH-1 receptor compared to hPTH-(1-34)” value in the data set with PTH-1 receptor is given as 10-100 fold. Further, the PLC activation entry in the data set with rat PTH-1 receptor is “weak and incomplete agonist”.
For the compound “PTH-(1-30)-Fc: PTH (1-30), SVSEIQLMHNLGKHLNSMERVEWLRKKLQD, linked at its C-terminus to an Fc domain (SVSEIQLMHNLGKHLNSMERVEWLRKKLQD-{Fc domain})”, the serum calcium result with mice [1] (100 nmoles/kg) is on record as “failed to significantly increase serum calcium”. Moreover, the “bone mineral density” value with mice [1] (setting [5]) was “greatest effect”. Moreover, in the data set on mice [1] (1,000 nmoles/kg), the “serum AP (osteoblast marker)” value is reported as “greatest elevation” and the “time of peak serum AP after injection” value is on record as 72 h. Further, the “bone mineral density” value with mice [1] (1,000 nmoles/kg on day 0, 5, 10, pQCT day 15) is recorded as “least effect”. Also, the BMD versus controls result in the data set on mice [1] (all doses (100-1,000 nmoles/kg), pQCT day 15) was “greater than in controls”. In the data set with mice [1] (high dose 1,000 nmoles/kg), the “calculated AP:TRAP ratio” value was “greatest increase”. Moreover, in the data set with mice [1], the “serum TRAP (osteoclast marker)” value was “not significantly changed” and the “calcemic potency among the 3 Fc peptides” value is reported as “least calcemic”. In the data set with mice [1] (pQCT day 15), the “increase in bone density compared with the other PTH constructs” value was “greatest increase in bone density”.
Turning to Parathyroid hormone [PTH], in data set [2], the half-life result is on record as “less than 1 h”.
As to human PTHrP(1-34) [PTHrP-(1-34)], in the data set with mice [3], the “persistence of calcemic response post challenge” value was “at least 6 h” and the “time of peak calcemic response post challenge” value was 3 h.
In the case of “human PTH(1-28) (SVSEIQLMHNLGKHLNSMERVEWLRKKL; listed as Homo sapiens) [PTH-(1-28)]”, the anabolic effect result was “ineffective” with OVX rats (200 μg/kg/day) and “anabolic” with OVX rats (1,000 μg/kg/day).
For `NCCC(O)(P(=O)(O)O)P(=O)(O)O` [APD, pamidronate, reference compound], the “BMD at any skeletal site compared to vehicle-treated OVX rats” value in data set [4] (0.5 mg/kg twice per week) is reported as “did not significantly increase BMD”. Moreover, the “effect of co-administration on calcemic effect of PTH-(1-34)-Fc” value in data set [4] (APD 0.5 mg/kg co-administered) is recorded as “completely blocked the calcemic effect”.
